System: 435261-313-R-J1-PDC complex spheroid viability
Experiment: Anticancer human tumor 435261-313-R-J1-PDC patient-derived colon adenocarcinoma cell line growth inhibition [GQUAD]
Details: for IC50: curve of first compound; for viability, T/C: stronger effect = lower value; active means viability on the fitted dose curve at most 10% of control; inactive means the rest
From the text: DNA G-quadruplex Stabilizer Agents in Combinations in Complex Spheroids
A high-throughput screen of multi-cell type tumor spheroids was designed to identify active combinations of DNA G-quadruplex stabilizer agents and targeted small molecules. Complex spheroids include a stromal component modeled by human endothelial cells (HUVEC) and fibroblasts modeled by human mesenchymal stem cells (MSCs). The concentration ranges selected for each drug and investigational agent were based upon clinically achievable concentrations if the clinical Cmax of the agent was known.
Compounds. The drugs and investigational agents: pidnarulex (CX-5461; NSC782164), APTO-253 (NSC789042), BRACO-19 (NSC847499), peposertib (NSC802822), ceralasertib (NSC780249), elimusertib (NSC800525), camonsertib (NSC841442), AZD-1390 (NSC803789), olaparib (NSC753686), talazoparib (NSC767125), ART-558 (NSC835418), sotorasib (NSC818433), MRTX-1133 (NSC836407), SN-38 (NSC673596), topotecan (NSC609699), etoposide (NSC141540), doxorubicin (NSC123127), gemcitabine (NSC613327), 5-fluorouracil (NSC19893), paclitaxel (NSC125973), vemurafenib (NSC761431), panobinostat (NSC761190), R-306465 (JNJ-16241199; NSC773264), adavosertib (NSC754352), TP-3654 (NSC805149), carboplatin (NSC241240), KSQ-4279 (NSC840948), and staurosporine (NSC755774) were obtained from the National Cancer Institute (NCI) Developmental Therapeutics Program Chemical Repository (34). The FDA-approved anticancer drug set is available from the NCI Developmental Therapeutics Program. […] The stock solutions were prepared in dimethyl sulfoxide (DMSO, Sigma-Aldrich, St. Louis, MO, cat. D2650) at 800-fold the tested concentration and stored at -70 degrees C prior to their use. All drugs and investigational agents were tested over a range starting from a high concentration at or near the clinical Cmax and decreasing in half-log increments. If the clinical Cmax for an agent had not been determined, the highest concentration tested was 10 microM.
2.3 Cell Culture. All cells were maintained in an incubator at 37 degrees C and 5% CO2 with 95% humidity. The PDC lines were cultured according to standard operating procedures established by the NCI PDMR. All PDCs were thawed and cultured in Matrigel-coated flasks prepared with a working solution of 1X Ham's F-12 nutrient mix, without supplementation (Invitrogen, cat. 11765054), 100 U/mL penicillin-streptomycin (Invitrogen, cat. 15140122), and 2.5% Matrigel (Corning Inc., cat. 354248) for the first three passages. The 857933-349-R-J2-PDC line was cultured in 6C/Colon 1B media, which includes advanced DMEM/F-12 (Thermo Fisher Scientific, cat. 12634028), 10 mM HEPES (Thermo Fisher Scientific, cat. 15630080), 1X GlutaMAX supplement (Thermo Fisher Scientific, cat. 35050061), 0.1 mg/mL primocin (InvivoGen, cat. ant-pm-2), 10% defined fetal bovine serum, heat inactivated (HyClone Laboratories Inc., cat. SH30070.03HI), 50% L-WRN conditioned media (ATCC, cat. CRL-3276), 1.25 mM N-Acetyl-L-cysteine (Sigma-Aldrich, cat. A9165), 10 mM nicotinamide (Sigma-Aldrich, cat. N0636), 1X B-27 supplement (Thermo Fisher Scientific, cat. 17504044), 1X N-2 supplement (Thermo Fisher Scientific, cat. 17502048), 10 microM Y-27632 dihydrochloride (Tocris Bioscience, cat. 1254), and 50 ng/mL human EGF recombinant protein (Thermo Fisher Scientific, cat. PHG0311). The 485176-168-R4-J1-PDC line was cultured in Panc media, which includes all 6C/Colon 1B media components plus 100 ng/mL human FGF-10 (Thermo Fisher Scientific, cat. 100-26), 500 nM SB-431542 (Selleckchem, cat. S1067), and gastrin (Tocris, cat. 3006).
[…]

[1] = second compound 0.0316 µM, first compound 0.0316 µM
[2] = second compound 0.0316 µM, first compound 0.316 µM
[3] = second compound 0.1 µM, first compound 0.0316 µM
[4] = second compound 0.1 µM, first compound 0.316 µM
[5] = second compound 0.316 µM, first compound 0.0316 µM
[6] = second compound 0.316 µM, first compound 0.316 µM
[7] = second compound 1 µM, first compound 0.0316 µM
[8] = second compound 1 µM, first compound 0.316 µM
[9] = second compound 3.16 µM, first compound 0.0316 µM
[10] = second compound 3.16 µM, first compound 0.316 µM
[11] = second compound 10 µM, first compound 0.0316 µM
[12] = second compound 10 µM, first compound 0.316 µM
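Further: spheroids exposed to the agents for seven days before readout.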
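Wherever viability, T/C is given: percent of vehicle control viability with DMSO wells as 100%.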

Nc1ccn(C2OC(CO)C(O)C2(F)F)c(=O)n1 (centres undefined) + CN(C)c1ccc(Nc2c3ccc(NC(=O)CCN4CCCC4)cc3nc3cc(NC(=O)CCN4CCCC4)ccc23)cc1
inactive: viability, T/C [1] 90.2% | viability, T/C (second compound 0.0316 µM, first compound 0.1 µM) 78.8% | viability, T/C [2] 90% | viability, T/C (second compound 0.0316 µM, first compound 1 µM) 83% | viability, T/C (second compound 0.0316 µM, first compound 3.16 µM) 77.2% | viability, T/C (second compound 0.0316 µM, first compound 10 µM) 60.9% | viability, T/C [3] 85.3% | viability, T/C (second compound 0.1 µM, first compound 0.1 µM) 103% | viability, T/C [4] 72.5% | viability, T/C (second compound 0.1 µM, first compound 1 µM) 84.5% | viability, T/C (second compound 0.1 µM, first compound 3.16 µM) 70.4% | viability, T/C (second compound 0.1 µM, first compound 10 µM) 68.5% | viability, T/C [5] 98.4% | viability, T/C (second compound 0.316 µM, first compound 0.1 µM) 94.8% | viability, T/C [6] 70.4% | viability, T/C (second compound 0.316 µM, first compound 1 µM) 68.3% | viability, T/C (second compound 0.316 µM, first compound 3.16 µM) 76.9% | viability, T/C (second compound 0.316 µM, first compound 10 µM) 67.8% | viability, T/C [7] 79.9% | viability, T/C (second compound 1 µM, first compound 0.1 µM) 78.2% | viability, T/C [8] 74.5% | viability, T/C (second compound 1 µM, first compound 1 µM) 68.1% | viability, T/C (second compound 1 µM, first compound 3.16 µM) 78.8% | viability, T/C (second compound 1 µM, first compound 10 µM) 66.5% | viability, T/C [9] 68.7% | viability, T/C (second compound 3.16 µM, first compound 0.1 µM) 58% | viability, T/C [10] 53.2% | viability, T/C (second compound 3.16 µM, first compound 1 µM) 57.5% | viability, T/C (second compound 3.16 µM, first compound 3.16 µM) 54% | viability, T/C (second compound 3.16 µM, first compound 10 µM) 38.7% | viability, T/C [11] 30.9% | viability, T/C (second compound 10 µM, first compound 0.1 µM) 26.6% | viability, T/C [12] 26.2% | viability, T/C (second compound 10 µM, first compound 1 µM) 32.9% | viability, T/C (second compound 10 µM, first compound 3.16 µM) 26.5% | viability, T/C (second compound 10 µM, first compound 10 µM) 24.9%
> 10000 nM: IC50 (second compound 0.0316 µM) | IC50 (second compound 0.1 µM) | IC50 (second compound 0.316 µM) | IC50 (second compound 1 µM)
< 31.6 nM: IC50 (second compound 10 µM)
2840 nM: IC50 (second compound 3.16 µM)

Cn1ncnc1[C@H]1c2n[nH]c(=O)c3cc(F)cc(c23)N[C@@H]1c1ccc(F)cc1 + Cc1cnc(CNC(=O)c2c(=O)c3ccc(N4CCCN(C)CC4)nc3n3c2sc2ccccc23)cn1
> 316 nM: IC50 (second compound 0.0316 µM) | IC50 (second compound 0.1 µM) | IC50 (second compound 0.316 µM)
< 0.999 nM: IC50 (second compound 1 µM) | IC50 (second compound 3.16 µM) | IC50 (second compound 10 µM)
active: viability, T/C (second compound 10 µM, first compound 0.000999 µM) 0.24% | viability, T/C (second compound 10 µM, first compound 0.00316 µM) 11.3% | viability, T/C (second compound 10 µM, first compound 0.00999 µM) 0.24% | viability, T/C [11] 0.21% | viability, T/C (second compound 10 µM, first compound 0.0999 µM) 0.18% | viability, T/C [12] 9.04%
inactive: viability, T/C (second compound 0.0316 µM, first compound 0.000999 µM) 82.1% | viability, T/C (second compound 0.0316 µM, first compound 0.00316 µM) 60.3% | viability, T/C (second compound 0.0316 µM, first compound 0.00999 µM) 66.2% | viability, T/C [1] 60.9% | viability, T/C (second compound 0.0316 µM, first compound 0.0999 µM) 72.1% | viability, T/C [2] 62.9% | viability, T/C (second compound 0.1 µM, first compound 0.000999 µM) 59.5% | viability, T/C (second compound 0.1 µM, first compound 0.00316 µM) 60.5% | viability, T/C (second compound 0.1 µM, first compound 0.00999 µM) 47.1% | viability, T/C [3] 57% | viability, T/C (second compound 0.1 µM, first compound 0.0999 µM) 59.4% | viability, T/C [4] 62.4% | viability, T/C (second compound 0.316 µM, first compound 0.000999 µM) 58.9% | viability, T/C (second compound 0.316 µM, first compound 0.00316 µM) 57.8% | viability, T/C (second compound 0.316 µM, first compound 0.00999 µM) 55.4% | viability, T/C [5] 53.1% | viability, T/C (second compound 0.316 µM, first compound 0.0999 µM) 49.6% | viability, T/C [6] 53.4% | viability, T/C (second compound 1 µM, first compound 0.000999 µM) 42.4% | viability, T/C (second compound 1 µM, first compound 0.00316 µM) 46.8% | viability, T/C (second compound 1 µM, first compound 0.00999 µM) 59.2% | viability, T/C [7] 49.8% | viability, T/C (second compound 1 µM, first compound 0.0999 µM) 47.1% | viability, T/C [8] 46.9% | viability, T/C (second compound 3.16 µM, first compound 0.000999 µM) 17.9% | viability, T/C (second compound 3.16 µM, first compound 0.00316 µM) 18.4% | viability, T/C (second compound 3.16 µM, first compound 0.00999 µM) 12.7% | viability, T/C [9] 23% | viability, T/C (second compound 3.16 µM, first compound 0.0999 µM) 20.4% | viability, T/C [10] 11.9%
